From US12139508B2, “Steroid derivative regulators, method for preparing the same, and uses thereof” (JIANGSU HANSOH PHARMACEUTICAL GROUP CO., LTD., priority 2018, dated 2024) come the findings set out here.

Series [1] is described as follows: Pharmacokinetic assay in Balb/c mice (plasma and brain tissue). It is filed as in vivo. Conditions: mouse, po, 5 mg/kg p.o., male Balb/c mice; for AUC(0-t): read-out: Area under curve AUC0-t; for AUC(0-inf): read-out: Area under curve AUC0-∞; for half-life: read-out: Half-life t1/2 (converted); for MRT: read-out: Mean residence time MRT; for Tmax: read-out: Peak time tmax; for Cmax: read-out: Plasma concentration Cmax. How it is done:
Balb/c mice were used as test animals. The pharmacokinetic behavior in mice (plasma and brain tissue) of the compounds of Examples 2, 3, 5, 6, 9, 13, 59, 60, 61, 63, 71-74, 81, 103, 130, 134, 135, 137, 138, 140, 141, 143, 145 and 146 orally administered at a dose of 5 mg/kg was studied.
Each group had 24 male Balb/c mice. After an overnight fast, Balb/c mice were administered p.o. with the test compound at an administration dose of 5 mg/kg and an administration volume of 10 mL/kg.
0.2 ml of blood was taken from the heart before administration and at 0, 0.5, 1, 2, 4, 6, 8 and 24 hours after administration. The samples were stored in EDTA-K2 tubes, and centrifuged for 6 minutes at 4° C., 6000 rpm to separate the plasma. The plasma samples were stored at −80° C. The mice were sacrificed with CO2, and the whole brain tissue was taken out, weighed, placed in a 2 mL centrifuge tube and stored at −80° C.
1) 160 μL of acetonitrile was added to 40 μL of the plasma sample for precipitation, and then the mixture was centrifuged for 5-20 minutes at 3500×g.
2) 90 μL of acetonitrile containing the internal standard (100 ng/mL) was added to 30 μL of the plasma and brain homogenate samples for precipitation, and then the mixture was centrifuged for 8 minutes at 13000 rpm.
3) 70 μL of the treated supernatant was taken and added to 70 μL of water, and mixed by vortex for 10 minutes. 20 μL of the mixture was taken to analyze the concentration of the test compound by LC/MS/MS. LC/MS/MS analysis instrument: AB Sciex API 4000 Qtrap.
• Liquid chromatography condition: Shimadzu LC-20AD pump. • Chromatographic column: Agilent ZORBAX™ XDB-C18 (50×2.1 mm, 3.5 μm) (note: Aglient ZORBAX™ is a kind of column used in the reverse HPLC); • Mobile phase: Eluent A was 0.10% formic acid in water, and Eluent B was acetonitrile. • Flow rate: 0.4 mL/min • Elution time: 0-4.0 minutes, the eluent is as follows:
The main parameters of pharmacokinetics were calculated by WinNonlin 6.1.

For series [2], the system named is forced-swimming mice. Put plainly: In vivo pharmacodynamic test in the forced swimming model in mice. Conditions: ICR mice; for Mean (immobility, %): dose 10 mpk p.o., 100*floating time/240 s; for Immobility time during the latter four minutes compared with that of the model group: forced swimming. How it is done:
The antidepressant effect of the compound was evaluated by the forced swimming model in mice.
Male ICR mice (25-35 g) were adapted in the test environment for 3 days before the forced swimming test.
According to the test design, the mice were randomly grouped on the day before the test according to body weight, with 12 mice in each group. Before the test, the compounds of each example were administered intragastrically according to the Tmax thereof in the brain in mice pharmacokinetic test as follows: • 1) Model group (0.5% CMC-Na-1% Tween 80 solution, p.o., 10 mL/kg); • 2) Compounds of Example 2, Example 3, Example 5, Example 6, Example 9, Examples 59-63, Examples 71-73, Example 103, Example 135, Example 137, Example 145 and Example 146 (10 mg/kg, p.o., 10 mL/kg); Example 13 and Example 74 (5 mg/kg, p.o., 5 mL/kg).
When being administered, the compounds of each example were suspended in 0.5% CMC-Na+1% Tween 80 solution to the desired concentration.
0.5-1 hour after administration, ICR mice were placed in a forced swimming device (transparent glass drum (water depth 18 cm, water temperature 25-26° C.), one mouse per tank) and forced to swim for 6 minutes. The forced swimming device recorded the floating time of the ICR mice during the entire 6 minutes, and the data of the latter four minutes were used for data analysis. The mice were taken out immediately after the swimming test, wiped dry and put back in their original cages.
Note: The criterion for determining the immobility time is that the mouse stops struggling in water and floats, and there are only slight limb movements to keep the head floating on the water.
3.4 Data Analysis Floating time percentage=100*floating time/240 s.

The target in series [3] is GABA-A receptor. Put plainly: 35S-TBPS binding assay (GABAA receptor binding ability test). Conditions: rat cerebral cortex cell membrane, 5 μM GABA, 2 nM 35S-TBPS; read-out: 35S-TBPS bindng test: IC50 on inhibiting the TBPS binding activity. The arrangement: species or system Sprague-Dawley rat. The method in brief:
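Rat (male Sprague-Dawley) cortical membranes in PBS were preincubated 5 min at 25° C with compound (from 1 μM, 3-fold, 8 points, 1% DMSO), then 5 μM GABA 5 min, then 2 nM ^35S-TBPS for 20 h at 4° C. Filter-bound counts gave % inhibition against DMSO and 10 μM P026-2 controls; IC50 by 4-parameter fit.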

Each structure is given as a SMILES string. Read-outs that look alike come from different tables or passages of the source.

For `C[C@@]1(O)CC[C@H]2[C@H](CC[C@@H]3[C@@H]2CC[C@@]2(C)[C@H]3[C@H](C3CC3)C[C@@H]2C(=O)Cn2ccc(C#N)n2)C1` [Example 72, 1-(2-((3R,5R,8R,9R,10S,13S,14S,15S,17S)-15-Cyclopropyl-3-hydroxy-3,13-dimethylhexadecahydro-1H-cyclopenta[a]phenanthren-17-yl)-2-oxoethyl)-1H-pyrazole-3-carbonitrile], in series [1] (brain tissue), the AUC(0-t) stood at 2050 ng·h/mL, the AUC(0-inf) is 2240 ng·h/mL, the half-life was 2.12 h and the mean residence time (MRT) was 3.17 h. Besides, in series [1] (brain tissue), the Tmax was 0.5 h and the Cmax worked out at 724 ng/mL. Also, in series [1] (plasma), the AUC(0-t) came to 2970 ng·h/mL, the AUC(0-inf) turned out to be 2970 ng·h/mL, the half-life was 2.79 h and the MRT came out at 3.71 h. Also, in series [1] (plasma), the Tmax was found to be 0.5 h and the Cmax stood at 1150 ng/mL. Further, in series [2], the “Mean (immobility, %)” value is 35.74% and the “Immobility time during the latter four minutes compared with that of the model group” value was “significantly different”.

Consider `C[C@@]1(O)CC[C@H]2[C@H](CC[C@@H]3[C@@H]2CC[C@@]2(C)[C@H]3[C@H](C3CC3)C[C@@H]2C(=O)Cn2nccn2)C1` [Example 73, 1-((3R,5R,8R,9R,10S,13S,14S,15S,17S)-15-Cyclopropyl-3-hydroxy-3,13-dimethylhexadecahydro-1H-cyclopenta[a]phenanthren-17-yl)-2-(2H-1,2,3-triazol-2-yl)ethan-1-one], for which, in series [1] (brain tissue), the AUC(0-t) turned out to be 1100 ng·h/mL, the AUC(0-inf) stood at 1120 ng·h/mL, the half-life was 1.31 h and the MRT worked out at 1.91 h. In series [1] (brain tissue), the Tmax worked out at 0.5 h and the Cmax turned out to be 636 ng/mL. Moreover, in series [1] (plasma), the AUC(0-t) was 2430 ng·h/mL, the AUC(0-inf) came to 2480 ng·h/mL, the half-life is 1.4 h and the MRT was found to be 2.06 h. In series [1] (plasma), the Tmax was 0.5 h and the Cmax is 1300 ng/mL. In addition, in series [2], the “Mean (immobility, %)” value came out at 29.57% and the “Immobility time during the latter four minutes compared with that of the model group” value was “significantly different”.

With `CC[C@@H]1C[C@H](C(=O)Cn2ccc(C(F)(F)F)n2)[C@@]2(C)CC[C@H]3[C@@H](CC[C@@H]4C[C@](C)(O)CC[C@@H]43)[C@H]12` [Example 138, 1-((3R,5R,8R,9R,10S,13S,14S,15R,17S)-15-Ethyl-3-hydroxy-3,13-dimethylhexadecahydro-1H-cyclopenta[a]phenanthren-17-yl)-2-(3-(trifluoromethyl)-1H-pyrazol-1-yl)ethan-1-one], in series [1] (brain tissue), the AUC(0-t) is 773 ng·h/mL, the AUC(0-inf) worked out at 935 ng·h/mL, the half-life was 1.47 h and the MRT is 2.38 h. For the same compound, in series [1] (brain tissue), the Tmax is 0.5 h and the Cmax was 314 ng/mL. For the same compound, in series [1] (plasma), the AUC(0-t) is 662 ng·h/mL, the AUC(0-inf) amounted to 730 ng·h/mL, the half-life was 1.66 h and the MRT was found to be 2.83 h. Moreover, in series [1] (plasma), the Tmax was found to be 0.5 h and the Cmax was 432 ng/mL. The IC50 in series [3] is 25.2 nM.

Take `CC[C@@H]1C[C@H](C(=O)Cn2ccnn2)[C@@]2(C)CC[C@H]3[C@@H](CC[C@@H]4C[C@](C)(O)CC[C@@H]43)[C@H]12` [Example 140, 1-((3R,5R,8R,9R,10S,13S,14S,15R,17S)-15-Ethyl-3-hydroxy-3,13-dimethylhexadecahydro-1H-cyclopenta[a]phenanthren-17-yl)-2-(1H-1,2,3-triazol-1-yl)ethan-1-one]: in series [1] (brain tissue), the AUC(0-t) turned out to be 4330 ng·h/mL, the AUC(0-inf) was 4540 ng·h/mL, the half-life was 1.21 h and the MRT was 2.1 h. Besides, in series [1] (brain tissue), the Tmax was 0.5 h and the Cmax is 1740 ng/mL. In series [1] (plasma), the AUC(0-t) came to 5980 ng·h/mL, the AUC(0-inf) was 6110 ng·h/mL, the half-life was 1.19 h and the MRT was determined as 2.22 h. Further, in series [1] (plasma), the Tmax is 0.5 h and the Cmax stood at 2480 ng/mL. Moreover, the IC50 in series [3] was determined as 33.1 nM.

On to `CC[C@@H]1C[C@H](C(=O)Cn2nccn2)[C@@]2(C)CC[C@H]3[C@@H](CC[C@@H]4C[C@](C)(O)CC[C@@H]43)[C@H]12` [Example 141, 1-((3R,5R,8R,9R,10S,13S,14S,15R,17S)-15-Ethyl-3-hydroxy-3,13-dimethylhexadecahydro-1H-cyclopenta[a]phenanthren-17-yl)-2-(2H-1,2,3-triazol-2-yl)ethan-1-one], for which, in series [1] (brain tissue), the AUC(0-t) was 2150 ng·h/mL, the AUC(0-inf) is 2250 ng·h/mL, the half-life is 1.68 h and the MRT was 2.68 h. Further, in series [1] (brain tissue), the Tmax came out at 0.5 h and the Cmax was found to be 1050 ng/mL. Moreover, in series [1] (plasma), the AUC(0-t) was determined as 3550 ng·h/mL, the AUC(0-inf) worked out at 3630 ng·h/mL, the half-life was 1.35 h and the MRT came to 2.55 h. Moreover, in series [1] (plasma), the Tmax was found to be 0.5 h and the Cmax was 1630 ng/mL. The IC50 in series [3] was 23.9 nM.

For `C[C@@]1(O)CC[C@H]2[C@H](CC[C@@H]3[C@@H]2CC[C@@]2(C)[C@H]3[C@H](C3CC3)C[C@@H]2C(=O)Cn2nc(C#N)cc2C#N)C1` [Example 143, 1-(2-((3R,5R,8R,9R,10S,13S,14S,15S,17S)-15-Cyclopropyl-3-hydroxy-3,13-dimethylhexadecahydro-1H-cyclopenta[a]phenanthren-17-yl)-2-oxoethyl)-1H-pyrazole-3,5-dicarbonitrile], in series [1] (brain tissue), the AUC(0-t) came out at 8820 ng·h/mL, the AUC(0-inf) was 9220 ng·h/mL, the half-life is 3.95 h and the MRT is 7.81 h. Also, in series [1] (brain tissue), the Tmax was 2 h and the Cmax was determined as 812 ng/mL. For the same compound, in series [1] (plasma), the AUC(0-t) is 6290 ng·h/mL, the AUC(0-inf) turned out to be 6490 ng·h/mL, the half-life is 1.7 h and the MRT was 3.08 h. Besides, in series [1] (plasma), the Tmax amounted to 0.5 h and the Cmax amounted to 1650 ng/mL. In series [3], the IC50 was determined as 28.5 nM.

Broadly, the MRT is a mean duration of stay, worked out from the concentration-time curve. For orientation: Tmax means the time from dosing to the highest level. As a reminder, the IC50 is the concentration needed to halve the response being measured.
